{"source": "patent US20170072012A1", "about": "“USE OF GSMTX4 TO REDUCE ISCHEMIA REPERFUSION INJURY” (priority 2014, published 2017)", "key": {"[1]": {"tested_on": "ischemic reperfusion injury in mouse heart", "format": "in vivo, C57B1/6J mice", "settings": "0.4 mg/kg tail vein 5 min before reperfusion; 4 h reperfusion; vehicle 16.5±1.2%; not statistically significant", "experimental": "Acute GsMTx4-D treatment: All animal protocols in this study were approved by the Institutional Animal Care and Use Committee of the University at Buffalo-State University of New York. C57B1/6J mice were anesthetized with 80 mg/kg of sodium pentobarbital (Sigma, St. Louis, Mo.) via intraperitoneal injection (IP), intubated and ventilated with a respirator (Harvard apparatus, Holliston, Mass., USA) 17. Upon absence of a pedal reflex, surgery was performed under a stereomicroscope. Core body temperature was maintained at 37° C. with a heating pad. After a left lateral thoracotomy, the left anterior descending coronary artery (LAD) was occluded just underneath the left atrium for 20 min with an 8-0 nylon suture. […] A small piece of gauze was used to prevent arterial injury. After 20 min the ligature was removed and the tissue was reperfused for up to 4 h before euthanizing. Three different doses of GsMTx4-D (0.1, 1, 10 mg/kg), verapamil (0.4 mg/kg) or vehicle (saline 50 μL) were administered via tail vein injection 5 min before reperfusion (during induced ischemia). ECGs confirmed the hallmark ischemic ST segment elevation during coronary occlusion (AD Instruments, Colorado Springs, CO, USA). Each group included 5 independent experiments. At the conclusion of the study, mice were euthanized by IP injection of 270 mg/kg pentobarbital. GsMTx4-D pretreatment: To evaluate the effect of GsMTx4-D pretreatment, GsMTx4-D (50 mg/kg) or vehicle (saline 50 μL) were administered via IP injection once daily for 2 days prior to surgery. Ischemia was then elicited with the same 20 min coronary occlusion followed by 24 h reperfusion. Following reperfusion, the chest was closed in layers. A drop of lidocaine was put on the suture site and the mouse was slowly weaned off the ventilator when they resumed spontaneous breathing. The mouse was returned to its cage and kept warm and medicated for pain (buprenorphine). Each group included 5 independent experiments.\nTo measure infarct size, hearts were harvested and excised for dual staining at the conclusion of reperfusion. The non-necrotic tissue in the ischemic region was stained red with 2,3,5- triphenyltetrazolium (TTC) and non-ischemic regions were stained blue with Evans blue. The hearts were fixed and sectioned into 1 mm slices, photographed with a Lexica MZ95 microscope and analyzed with NIH ImageJ software (http://imagej.nih.gov/ij/) 19. The infarct size was calculated as the ratio of the percentage of myocardial necrosis to the ischemic Area At Risk (AAR).\nTo test whether GsMTx4-D protected the heart against reperfusion injury, we first tested three different doses of the peptide. The positive control was verapamil, a voltage-gated calcium channel inhibitor with established cardioprotective effects on IRI. C57B1/6 mice were subjected to 20 min occlusion of the LAD followed by 4 hours of reperfusion. Three different concentrations of GsMTx4-D (0.1, 1 and 10 mg/kg), verapamil (0.4 mg/kg), or vehicle (saline) were administered through tail vein injection 5 min before reperfusion. […] At the conclusion of reperfusion, the hearts were stained with TTC and Evans Blue (FIG. 2A). […] The verapamil group also had lower infarction size (14.0±0.4%), but the difference wasn't statistically significant. […] To evaluate whether pretreatment with GsMTx4-D could also protect the heart from I/R injury, GsMTx4-D (50 mg/kg) or vehicle (saline 50 μL) were administered daily via IP injection, for 2 days prior to I/R surgery. As before, ischemia was induced from 20 min LAD occlusion, but reperfusion was allowed to continue for 24 hrs. The chest was closed in layers, and animals were weaned off the ventilator when they resumed spontaneous breathing. […] The ratios of AAR to total myocardial area between the two groups were equal as determined by TTC and Evans Blue staining (FIG. 3A and B). […]"}, "[2]": {"tested_on": "I/R induced arrhythmias in mouse heart", "assay": "Heart rhythm analysis (ECG) during reperfusion, I/R induced arrhythmia", "format": "in vivo, C57B1/6J mice", "settings": "0.4 mg/kg IV 5 min before reperfusion; vehicle 14.9±4.5; not significantly different", "experimental": "During reperfusion we continuously recorded ECGs, from which mean heart rate, PR, QRS, and QT intervals were derived for each animal. We evaluated the incidence of arrhythmias by counting the incidences of arrhythmias including ventricular and supraventricular premature beats by summing the number of episodes based on limb lead recordings for 15 min after reperfusion. Ventricular premature beats are considered more severe. Each group contained 5 to 7 independent experiments (vehicle n=7, verapamil n=6, GsMTx4-D 0.1mg/kg n=5, 1 mg/kg n=6 and 10 mg/kg n=5).\nHeart rate and rhythm were monitored by ECG to confirm the hallmark ischemic ST-segment elevation during coronary occlusion, and the gradually increasing inversion of the T-wave during reperfusion (FIG. 4A). Since generation of arrhythmias is a good indicator of the level of I/R damage, we counted ventricular and supraventricular premature beats occurring within 15 min of reperfusion (FIG. 4B). No ventricular tachycardia was observed during 20 min ischemia and 15 min reperfusion in the mouse heart. […] Considering that ventricular premature beats are indicative of more severe damage, the incidence of this specific arrhythmia was analyzed separately (FIG. 4 D). […] There was no difference in mean heart rate before ischemia (FIG. 4E). […] There was no difference in PR, QRS or QT intervals after treatment in all groups (data not shown)."}}, "data": [{"smiles": "COc1ccc(CCN(C)CCCC(C#N)(c2ccc(OC)c(OC)c2)C(C)C)cc1OC", "note": "(centres unmarked) [verapamil, reference compound]", "values": [{"measurement": "infarction size (infarct area / AAR)", "setting": "[1]", "result": "14.0±0.4", "unit": "%"}, {"measurement": "total incidence of arrhythmias (ventricular and supraventricular premature beats)", "setting": "[2]", "result": "5.7±1.2 incidence/15 min reperfusion"}]}]}
